Where two headings read alike, the source gives them in different places.
Assays:
CRBN = molecular target: T1, CRBN (Homo sapiens, UniProt Q96SW2); assay: NanoBRET CRBN binding, 293T.116 cells; conditions: 2 hours
T1 construct: expressed in transfected cells; host or cells: 293T (line named 293T.116)

SALL4 = SALL4 (Homo sapiens, UniProt Q96SW2+Q9UJQ4); assay: HiBiT degradation assay, KELLY.2 (SALL4-HiBiT) cells; type: cell-based; conditions: for DC50: KELLY.2 cells, 6 hours; for Emax: read-out: HiBiT-Degradation KELLY.2 SALL4 6 hours Emax, KELLY.2 cells
Method: RPMI 1640 Medium without phenol red, fetal bovine serum (FBS), and Sodium Pyruvate (100 mM) were purchased from Gibco (Grand Island, NY, USA). Nano-Glo® HiBiT Lytic Assay System was purchased from Promega (Madison, WI, USA). […] Cell culture flasks and 384-well microplates were acquired from VWR (Radnor, PA, USA).
(§1) SALL4 degradation was determined based on quantification of luminescent signal using Nano-Glo® HiBiT Lytic Assay kit. Test compounds were added to the 384-well plate from a top concentration of 10 μM with 11 points, half log titration in duplicates. KELLY.2 cells were added into 384-well plates at a cell density of 6000 cells per well. The plates were kept at 37° C. with 5% CO2 for 6 hours. The cells treated in the absence of the test compound were the negative control and the cells without Nano-Glo® HiBiT Lytic reagent were the positive control. After 6-hour incubation, Nano-Glo® HiBiT Lytic Assay reagents were added to the cells. Luminescence was acquired on EnVision™ Multilabel Reader (PerkinElmer, Santa Clara, CA, USA).

GSPT1 = GSPT1 (Homo sapiens, UniProt P15170+Q96SW2); assay: HiBiT degradation assay, 293T.114 cells, GSPT1; type: cell-based
Method: as §1, with “GSPT1” for “SALL4”, “5” for “11”, “3-fold” for “half log”, “quadruplicates. 293T.114” for “duplicates. KELLY.2”, “The plates were kept at 37° C. with 5% CO2 for 6 hours.” left out, “After 6-hour incubation, Nano-Glo® HiBiT Lytic Assay reagents were added to the cells.” left out

IKZF1 = molecular target: T2, IKZF1 (Homo sapiens, UniProt Q13422+Q96SW2); assay: HiBiT degradation assay, NCIH929.11 (HiBiT-IKZF1) cells; type: cell-based; conditions: for DC50: NCHI929.11 cells, 6 hours; for Emax: read-out: HiBiT-Degradation NCHI929.11 IKZF1 6 hours Emax, NCHI929.11 cells
T2 construct: endogenously expressing IKZF1 with HiBiT fusion tag via CRISPR; endogenous in cells; host or cells: NCIH929.11 (CRISPR knock-in)
Method: RPMI no-phenol red medium and fetal bovine serum (FBS) were purchased from Gibco (Grand Island, NY, USA). Nano-Glo® HiBiT Lytic Assay System was purchased from Promega (Madison, WI, USA). NCIH929.11 (HiBiT-IKZF1) cell line was generated in house, endogenously expressing IKZF1 with HiBiT fusion tag via CRISPR. Cell culture flasks and 384-well microplates were acquired from VWR (Radnor, PA, USA).
IKZF 1 degradation was determined based on quantification of luminescent signal using Nano-Glo® HiBiT Lytic Assay kit. Test compounds were added to the 384-well plate from a top concentration of 10 μM with 11 points, half-log titration in duplicates. NCIH929.11 cells expressing HiBiT-tagged TKZF1 were added into 384-well plates in RPMI medium containing 10% FBS and 0.05 mM 2-mercaptoethanol at a cell density of 15000 cells per well. The plates were kept at 37° C. with […] for 6 hours. Cells treated in the absence of the test compound were the negative control and wells containing media only were the positive control. After 6-hour incubation, Nano-Glo® HiBiT Lytic Assay reagents were added to the designated wells. Luminescence was acquired on EnVision™ Multilabel Reader (PerkinElmer, Santa Clara, CA, USA).

[1] = 293T.114 cells, 6 hours, read-out: HiBiT-Degradation 293T.114 GSPT1 6 hours DC50
[2] = read-out: HiBiT-Degradation 293T.114 GSPT1 6 hours Emax, 293T.114 cells, 6 hours

T2 sequence (Q13422 whole entry, the tested form may be a part): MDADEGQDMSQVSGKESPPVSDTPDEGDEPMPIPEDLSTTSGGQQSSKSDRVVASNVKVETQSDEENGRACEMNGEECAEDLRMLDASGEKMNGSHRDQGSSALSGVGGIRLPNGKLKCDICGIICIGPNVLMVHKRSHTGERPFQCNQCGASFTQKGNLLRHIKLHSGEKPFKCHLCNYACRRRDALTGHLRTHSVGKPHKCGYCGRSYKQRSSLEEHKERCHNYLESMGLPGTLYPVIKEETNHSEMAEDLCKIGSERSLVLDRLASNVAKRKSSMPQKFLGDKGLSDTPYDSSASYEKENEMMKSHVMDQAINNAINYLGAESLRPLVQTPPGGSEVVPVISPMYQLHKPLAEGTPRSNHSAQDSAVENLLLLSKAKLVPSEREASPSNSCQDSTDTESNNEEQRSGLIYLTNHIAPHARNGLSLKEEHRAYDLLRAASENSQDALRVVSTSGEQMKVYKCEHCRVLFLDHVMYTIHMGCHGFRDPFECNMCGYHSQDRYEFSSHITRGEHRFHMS
T2 sequence (Q96SW2 whole entry, the tested form may be a part): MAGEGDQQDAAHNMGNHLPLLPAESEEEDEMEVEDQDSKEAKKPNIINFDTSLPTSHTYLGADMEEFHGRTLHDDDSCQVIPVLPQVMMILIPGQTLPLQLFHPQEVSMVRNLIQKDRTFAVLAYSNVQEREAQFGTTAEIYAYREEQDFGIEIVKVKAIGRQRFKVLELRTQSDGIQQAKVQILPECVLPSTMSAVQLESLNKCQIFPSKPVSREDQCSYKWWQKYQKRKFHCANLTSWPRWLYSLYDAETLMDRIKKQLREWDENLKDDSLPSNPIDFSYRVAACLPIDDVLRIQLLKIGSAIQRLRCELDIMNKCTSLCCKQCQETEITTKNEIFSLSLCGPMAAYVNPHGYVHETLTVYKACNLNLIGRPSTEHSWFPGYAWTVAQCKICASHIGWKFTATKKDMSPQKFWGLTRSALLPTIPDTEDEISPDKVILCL
T2 sequence (Q16531 2-1140 partner limits assumed): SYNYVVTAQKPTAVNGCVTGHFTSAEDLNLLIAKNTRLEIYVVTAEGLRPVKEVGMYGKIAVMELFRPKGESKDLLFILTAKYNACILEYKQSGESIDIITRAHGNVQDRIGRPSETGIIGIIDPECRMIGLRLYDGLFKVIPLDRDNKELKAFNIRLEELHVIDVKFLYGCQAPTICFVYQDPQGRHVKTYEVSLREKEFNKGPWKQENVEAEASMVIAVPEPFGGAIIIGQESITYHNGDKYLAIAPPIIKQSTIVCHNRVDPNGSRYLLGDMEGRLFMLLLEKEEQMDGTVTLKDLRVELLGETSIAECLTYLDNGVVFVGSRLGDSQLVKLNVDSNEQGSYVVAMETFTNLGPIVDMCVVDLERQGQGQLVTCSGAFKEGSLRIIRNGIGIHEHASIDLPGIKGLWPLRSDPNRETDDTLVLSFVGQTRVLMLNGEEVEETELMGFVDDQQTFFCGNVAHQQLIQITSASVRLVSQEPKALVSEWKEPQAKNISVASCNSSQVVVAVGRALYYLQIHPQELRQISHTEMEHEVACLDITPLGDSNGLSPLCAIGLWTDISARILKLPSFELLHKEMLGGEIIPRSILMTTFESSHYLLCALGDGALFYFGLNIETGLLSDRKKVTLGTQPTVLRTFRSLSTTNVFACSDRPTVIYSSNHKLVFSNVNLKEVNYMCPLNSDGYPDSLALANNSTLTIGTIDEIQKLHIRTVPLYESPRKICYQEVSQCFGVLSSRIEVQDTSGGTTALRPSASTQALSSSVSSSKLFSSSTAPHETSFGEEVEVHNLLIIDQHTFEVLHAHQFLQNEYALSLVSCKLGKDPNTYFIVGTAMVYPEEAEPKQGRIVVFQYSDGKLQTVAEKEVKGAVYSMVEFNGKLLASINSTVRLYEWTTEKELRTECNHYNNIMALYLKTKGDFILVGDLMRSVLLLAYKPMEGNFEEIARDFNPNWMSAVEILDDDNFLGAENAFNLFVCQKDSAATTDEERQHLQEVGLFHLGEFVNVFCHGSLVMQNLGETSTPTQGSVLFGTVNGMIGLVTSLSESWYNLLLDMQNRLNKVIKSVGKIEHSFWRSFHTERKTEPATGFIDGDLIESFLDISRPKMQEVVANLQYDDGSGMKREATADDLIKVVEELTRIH
T1 sequence (Q96SW2 whole entry): as the sequence (Q96SW2 whole entry, the tested form may be a part) above
T1 sequence (Q16531 2-1140 partner limits assumed): as the sequence (Q16531 2-1140 partner limits assumed) above
Chain of SALL4 (Q9UJQ4 whole entry): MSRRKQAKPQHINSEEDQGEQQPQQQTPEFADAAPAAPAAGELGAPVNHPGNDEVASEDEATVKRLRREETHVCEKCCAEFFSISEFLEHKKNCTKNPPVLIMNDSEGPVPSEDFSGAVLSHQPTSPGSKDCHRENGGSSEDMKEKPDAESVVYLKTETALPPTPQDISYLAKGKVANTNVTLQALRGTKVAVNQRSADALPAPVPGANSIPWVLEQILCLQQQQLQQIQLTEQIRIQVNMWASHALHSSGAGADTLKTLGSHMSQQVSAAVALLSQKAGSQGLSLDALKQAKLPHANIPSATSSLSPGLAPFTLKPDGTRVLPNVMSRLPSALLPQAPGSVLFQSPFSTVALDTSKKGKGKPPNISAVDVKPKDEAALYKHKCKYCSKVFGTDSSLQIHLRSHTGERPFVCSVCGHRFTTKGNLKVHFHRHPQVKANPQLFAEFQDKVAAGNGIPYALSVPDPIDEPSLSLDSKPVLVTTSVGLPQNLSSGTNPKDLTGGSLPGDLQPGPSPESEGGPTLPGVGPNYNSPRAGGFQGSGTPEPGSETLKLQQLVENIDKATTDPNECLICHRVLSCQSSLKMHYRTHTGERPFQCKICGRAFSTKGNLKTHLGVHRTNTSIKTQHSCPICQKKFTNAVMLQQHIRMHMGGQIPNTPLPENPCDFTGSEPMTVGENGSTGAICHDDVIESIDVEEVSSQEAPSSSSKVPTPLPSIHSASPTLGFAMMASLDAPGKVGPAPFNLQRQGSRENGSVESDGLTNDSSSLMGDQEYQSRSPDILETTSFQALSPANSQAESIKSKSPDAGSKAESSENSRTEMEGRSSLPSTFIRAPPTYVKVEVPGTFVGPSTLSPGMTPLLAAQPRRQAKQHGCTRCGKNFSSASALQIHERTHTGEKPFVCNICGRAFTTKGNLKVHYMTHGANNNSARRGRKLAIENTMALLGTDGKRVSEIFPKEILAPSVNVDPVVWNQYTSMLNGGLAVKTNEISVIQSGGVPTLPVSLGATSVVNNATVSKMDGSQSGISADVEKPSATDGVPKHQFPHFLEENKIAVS
Chain of SALL4 (Q96SW2 whole entry): as the sequence (Q96SW2 whole entry, the tested form may be a part) above
Chain of SALL4 (Q16531 2-1140 partner limits assumed): as the sequence (Q16531 2-1140 partner limits assumed) above
Chain of GSPT1 (P15170 whole entry): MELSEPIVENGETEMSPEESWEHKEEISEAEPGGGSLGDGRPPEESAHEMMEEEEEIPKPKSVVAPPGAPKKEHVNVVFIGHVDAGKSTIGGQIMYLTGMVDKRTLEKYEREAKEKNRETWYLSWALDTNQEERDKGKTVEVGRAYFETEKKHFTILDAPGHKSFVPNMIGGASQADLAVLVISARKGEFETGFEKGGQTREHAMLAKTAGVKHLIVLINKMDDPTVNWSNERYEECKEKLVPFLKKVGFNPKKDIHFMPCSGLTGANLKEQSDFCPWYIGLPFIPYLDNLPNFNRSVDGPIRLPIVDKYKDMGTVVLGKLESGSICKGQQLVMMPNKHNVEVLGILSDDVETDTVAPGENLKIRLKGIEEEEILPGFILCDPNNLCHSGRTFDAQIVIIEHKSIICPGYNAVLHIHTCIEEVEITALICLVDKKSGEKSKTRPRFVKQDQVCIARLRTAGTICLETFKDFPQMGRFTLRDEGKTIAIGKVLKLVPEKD
Chain of GSPT1 (Q96SW2 whole entry): as the sequence (Q96SW2 whole entry, the tested form may be a part) above
Chain of GSPT1 (Q16531 2-1140 partner limits assumed): as the sequence (Q16531 2-1140 partner limits assumed) above

| Structure (SMILES) | IC50 (CRBN) [µM] | DC50 (SALL4) [µM] | Emax (SALL4) [%] | DC50 (GSPT1; [1]) [µM] | Emax (GSPT1; [2]) [%] | DC50 (IKZF1) [µM] | Emax (IKZF1) [%] | DC50 (GSPT1; 293T.114 cells, 24 hours, read-out: HiBiT-Degradation 293T.114 GSPT1 24 hours DC50) [µM] | Emax (GSPT1; 293T.114 cells, 24 hours, read-out: HiBiT-Degradation 293T.114 GSPT1 24 hours Emax) [%] | DC50 (GSPT1; 293T.114 cells, 48 hours, read-out: HiBiT-Degradation 293T.114 GSPT1 48 hours DC50) [µM] | Emax (GSPT1; 293T.114 cells, 48 hours, read-out: HiBiT-Degradation 293T.114 GSPT1 48 hours Emax) [%] | Emax (GSPT1; read-out: GSPT1 Emax @ 10 μM 24 Hours, 24 hours) [%] |
| --- | --- | --- | --- | --- | --- | --- | --- | --- | --- | --- | --- | --- |
| CC1(n2cc(Cc3ccc4c5c(cccc35)C(=O)N4C3CCC(=O)NC3=O)cn2)CCN(C(=O)C2(C#N)CCCCC2)CC1 (centres unmarked) [Compound 204] | < 0.1 | < 0.1 | < 45 | > 10 | 60 to 95 |  |  |  |  |  |  |  |
| N#CC1(C(=O)N2CCC(n3cc(Cc4ccc5c6c(cccc46)C(=O)N5C4CCC(=O)NC4=O)cn3)CC2)CCC1 (centres unmarked) [Compound 200, 1-[4-[4-[[1-(2,6-dioxo-3-piperidyl)-2-oxo-benzo[cd]indol-6-yl]methyl]pyrazol-1-yl]piperidine-1-carbonyl]cyclobutanecarbonitrile] |  | < 0.1 | < 45 | > 10 | > 95 |  |  |  |  |  |  |  |
| O=C1CCC(N2C(=O)c3cc(CNCc4ccco4)cc4cccc2c34)C(=O)N1 (centres unmarked) [Compound 160] |  |  |  | > 10 | 45 to 60 |  |  |  |  |  |  |  |
| CC(NC(=O)c1ccc2c3c(ccnc13)N(C1CCC(=O)NC1=O)C2=O)c1ccccc1 (centres unmarked) [Compound 185, 27-(2,6-dioxo-3-piperidyl)-20-oxo-N-(1-phenylethyl)-24,27-diazatricyclododeca-6,8(15),9(24),13(16),14(17)-pentaene-14-carboxamide] |  | < 0.1 | < 45 | > 0.1 | 60 to 95 |  |  |  |  |  |  |  |
| O=C1CCC(N2C(=O)c3ccc(CNCCc4ccc(Cl)cc4)c4cccc2c34)C(=O)N1 (centres unmarked) [Compound 157] | < 0.1 | < 0.1 | < 45 |  |  | 0.1 to 1 | < 45 | > 10 | 60 to 95 | > 10 | 60 to 95 |  |
| COc1ncc(CN2CCC(c3ccc4c5c(cccc35)N(C3CCC(=O)NC3=O)C4=O)CC2)cn1 (centres unmarked) [Compound 177] | < 0.1 | > 10 | 60 to 95 | > 10 | 60 to 95 |  |  |  |  |  |  |  |
| CCOc1ccc(Cc2ccc3c4c(cccc24)N(C2CCC(=O)NC2=O)C3=O)cc1 (centres unmarked) [Compound 68, 3-[5-[(4-ethoxyphenyl)methyl]-2-oxo-benzo[cd]indol-1-yl]piperidine-2,6-dione] | < 0.1 | > 10 | 60 to 95 | > 10 | 60 to 95 | > 10 | 60 to 95 |  |  |  |  |  |
| CC1(n2cc(Cc3ccc4c5c(cccc35)C(=O)N4C3CCC(=O)NC3=O)cn2)CCN(C(=O)C2CC2)CC1 (centres unmarked) [Compound 205] | < 0.1 | < 0.1 | < 45 | > 10 | 60 to 95 |  |  |  |  |  |  |  |
| CCOc1ccc(Cc2ccc3c4c(cccc24)N(C2CCC(=O)NC2=O)C3=O)c(F)c1 (centres unmarked) [Compound 60, 3-(5-(4-ethoxy-2-fluorobenzyl)-2-oxobenzo[cd]indol-1(2H)-yl)piperidine-2,6-dione] | < 0.1 | > 10 | 60 to 95 | > 10 | 60 to 95 | > 10 | 60 to 95 |  |  |  |  | < 45 |
| CC1(n2cc(Cc3ccc4c5c(cccc35)C(=O)N4C3CCC(=O)NC3=O)cn2)CCN(c2ncccc2F)CC1 (centres unmarked) [Compound 208, 3-[6-[[1-[1-(3-fluoro-2-pyridyl)-4-methyl-4-piperidyl]pyrazol-4-yl]methyl]-2-oxo-benzo[cd]indol-1-yl]piperidine-2,6-dione] |  | < 0.1 | < 45 | > 10 | 60 to 95 |  |  |  |  |  |  |  |
| COC(=O)c1ccc(Nc2ccc3cccc4c3c2C(=O)N4C2CCC(=O)NC2=O)cc1 (centres unmarked) [Compound 186, Methyl 4-[[1-(2,6-dioxo-3-piperidyl)-2-oxo-benzo[cd]indol-3-yl]amino]benzoate] |  | > 10 | 60 to 95 | > 10 | 60 to 95 | > 10 | 60 to 95 |  |  |  |  |  |
